Results: patent US11434289B2, “Anti-GPR20 antibody and anti-GPR20 antibody-drug conjugate” (DAIICHI SANKYO COMPANY, LIMITED, priority 2017, dated 2022)

What was measured:
[1] = tested on: human gastrointestinal stromal tumor cell line GIST430/654; test: Antitumor effect and combined use with sunitinib in GIST430/654-transplanted nude mouse models (imatinib resistance mutation V654A in KIT); type: in vivo, BALB/c nude mice; conditions: orally once a day; imatinib 150, sunitinib 40 mg/kg; FIG. 37
GIST074 = test: Antitumor effect in subcutaneously GIST074-transplanted nude mouse models (regorafenib-unresponsive patient tumor); type: in vivo, BALB/c nude mice; conditions: orally once a day; imatinib 90, sunitinib 30, regorafenib 4 mg/kg; FIG. 36
Method: The antitumor effects of the antibody-drug conjugates were evaluated using animal models derived from immunodeficient mice by the transplantation of human gastrointestinal stromal tumor-derived cells. Five- to 6-week-old female BALB/c nude mice (CAnN.Cg-Foxnlnu/CrlCrlj, Charles River Laboratories Japan Inc.) were acclimatized for 4 to 7 days under SPF conditions before use in the experiment. The mice were fed with a sterilized solid diet (FR-2, Funabashi Farms Co., Ltd) and given sterilized tap water (which had been prepared by adding a 5 to 15 ppm sodium hypochlorite solution to tap water). The longest diameter and the shortest diameter of the transplanted tumor were measured once or twice a week using electronic digital calipers (CD-15CX, Mitutoyo Corp.), and the volume of the tumor was then calculated according to the following equation. Tumor volume (mm^3)=½×Longest diameter (mm)×[Shortest diameter (mm)]^2
[…] ABS buffer was administered in the same manner as above to a control group (vehicle group). Five or six mice per group were used in the experiment. […]

SMILES | tumor growth [1] | tumor growth (GIST074)
Cc1ccc(NC(=O)c2ccc(CN3CCN(C)CC3)cc2)cc1Nc1nccc(-c2cccnc2)n1 [imatinib] | did not suppress tumor growth | tumor growth was not completely suppressed
CNC(=O)c1cc(Oc2ccc(NC(=O)Nc3ccc(Cl)c(C(F)(F)F)c3)c(F)c2)ccn1 [regorafenib] |  | tumor growth was not completely suppressed
